# B1: 6A-466: RRV with yCD2 and minimum IRES, 6As, base 183 to 544 of SEQ ID NO:41 (nucleic acid, listed as Encephalomyocarditis virus)
# DNA: AGGAAGCAGTTCCTCTGGAAGCTTCTTGAAGACAAACAACGTCTGTAGCGACCCTTTGCAGGCAGCGGAACCCCCCACCTGGCGACAGGTGCCTCTGCGGCCAAAAGCCACGTGTATAAGATACACCTGCAAAGGCGGCACAACCCCAGTGCCACGTTGTGAGTTGGATAGTTGTGGAAAGAGTCAAATGGCTCTCCTCAAGCGTATTCAACAAGGGGCTGAAGGATGCCCAGAAGGTACCCCATTGTATGGGATCTGATCTGGGGCCTCGGTGCACATGCTTTACATGTGTTTAGTCGAGGTTAAAAANCGTCTAGGCCCCCCGAACCACGGGGACGTGGTTTTCCTTTGAAAAACACGAT
# modifications: (492)..(492) “n” can be present or absent, if present n is “A”
# Key:
# [1] = Intravenous Toca 511 in Balb/c mice, long-term vector biolocalization study; format: in vivo
# Source text: Intravenous injection of Toca 511 into Balb/C mice. 2.35×10̂6 or 2.35×10̂5 TU of Toca 511 was intravenously administered to 8-week-old female Balb/C mice. Approximately 180 days post infection, genomic DNA from various tissues was harvested for bio-locolization study. Genomic DNA from abnormal tissues such as thymus or lymph node was extracted for sequence analysis of the envelope and IRES-yCD2 cassette.
# RRV can undergo changes in the length of the oligo adenosine in the A bulge of the EMCV IRES in vivo. […] In a vector biolocalization study conducted as part of a preclinical package to support initiation of clinical trials, Toca 511 was injected intravenously into a permissive mouse strain (Balb/c mice) to evaluate long-term vector bio-localization. […] DNA from the abnormal thymus or lymph nodes of 3 mice were harvested for molecular PCR cloning of proviral sequences, followed by sequencing analysis. One feature was that there were multiple copies of the virus including recombinants with endogenous mouse MCF envelope sequences present, as occurs with lymphomagenesis with ecotropic MLV infection (Fan, 1997). Further analyses are planned for a future publication. […] It appears that the oligo A number drifts preferentially towards longer oligo A in the A bulge. However, the nature of this preference was undefined in the in vivo study.
# U87-MG cells = assay: yCD2 protein expression by immunoblot in infected U87-MG cells; format: cell-based, human; conditions: fully infected U87-MG cells
# Method: RRVs containing various numbers of A's in the J-K bifurcation region express similar levels of transcripts but different levels of protein expression. The viral supernatant from HT1080 cells was then used to infect naive U87-MG cells at multiplicity of infection (MOI) of 0.1. At day 10 post infection, when the cells were fully infected, cellular viral RNA levels were measured by quantitative real-time polymerase chain reaction (qRT-PCR), and protein expression level of yCD2 was examined by immunoblotting (Perez et al., 2012). The cellular viral RNA expression levels were measured using two different primer sets, located in the env (5′Env2: 5′-[…]-3′ (SEQ ID NO:47), 3′Env2: 5′-[…]-3′ (SEQ ID NO:48), probe: 5′FAM-[…]-3′BHQ (SEQ ID NO:49)) and in yCD2 region (5′yCD2: 5′-[…]-3′ (SEQ ID NO:50), 3′yCD2: 5′-[…]-3′ (SEQ ID NO:51), probe: 5′FAM-[…]-3′BHQ (SEQ ID NO:52)), respectively, (FIG. 2). The relative level of RNA from each vector was calculated using 2-^ΔΔ(Ct) method with respect to the vector containing the 6As. […] Therefore, the effect of the number of A's in the loop were analyzed with another transgene for which the protein expression assay was well defined. […]
# Immunoblot and cell-based yCD2 enzymatic assay. […] Quantity One software (Bio-Rad) was used to quantify the signal of yCD2 and GAPDH detected on the immunoblots. […]
Molecule,"mice with abnormalities in lymphoid tissues ([1]; higher doses, 180 days, depending on the cohort)","change of oligo A length in A bulge of integrated proviruses in vivo ([1]; intravenous, approximately 180 days, abnormal thymus or lymph node)",yCD2 protein expression in comparison to the 6A variant with full-length IRES (U87-MG cells)
Toca 511: RRV with a 7A IRES expressing yCD2 (pAC3-yCD2; SEQ ID NO:22),10-20%,"heterogeneous expansions of 7A to 8A, 9A, 10A, 11A and 12A and a contraction of 7A to 6A",–
B1,–,–,shows expression of yCD2

# From patent US20160222412A1, “R[…] WITH S[…]-LOOP” (Tocagen Inc., priority 2013, published 2016)
